ChEMBL document CHEMBL3046147, “Synthesis and Herbicidal Activity of 1-Arylalkyl-3-pyrrolin-2-one Derivatives” (J Pestic Sci, 2000)

Columns and labels:
[1] = test system: Oryza sativa; test: Phytotoxicity against two-leaf stage Oryza sativa cv. Nihonbare (rice) planted 3 cm depth measured after […]; format: organism-based; conditions: in vivo
[2] = test system: Sagittaria pygmaea; test: Herbicide activity against Sagittaria pygmaea under greenhouse condition compound treated at 0.5 leaf-stage measured after 14 to 20 days; format: functional
[3] = test system: Oryza sativa; test: Phytotoxicity against two-leaf stage Oryza sativa cv. Nihonbare (rice) planted 1 cm depth measured after […]; format: organism-based; conditions: in vivo
[4] = test system: Schoenoplectiella juncoides; test: Herbicide activity against Schoenoplectiella juncoides under greenhouse condition compound treated at emergence-stage measured after 14 to 20 days; format: functional
[5] = test system: Echinochloa oryzicola; test: Herbicide activity against Echinochloa oryzicola under greenhouse condition compound treated at 2 leaf-stage measured after 14 to 20 days; format: functional
[6] = test system: Echinochloa oryzicola; test: Pre-emergence herbicide activity against Echinochloa oryzicola under greenhouse condition measured after 14 to 20 days; format: functional

For `CC1=C(c2ccccc2)C(=O)N(C(C)(C)c2csc(-c3ccccc3)n2)C1`, the MTD [1] was 40 g/acre, the MED [2] was 40 g/acre and the MTD [3] was 40 g/acre. The MED [4] was 40 g/acre, the MED [5] was <5 g/acre and the MED [6] was 40 g/acre.
In the case of `COc1ccccc1C1=C(C)CN(C(C)(C)c2nc3ccccc3s2)C1=O`, the MTD [1] is reported as 5 g/acre, the MED [2] is reported as 5 g/acre and the MTD [3] is reported as > 5 g/acre. For the same compound, the MED [4] was 5 g/acre, the MED [5] was <5 g/acre and the MED [6] was 5 g/acre.
`CC1=C(c2ccccc2)C(=O)N(C(C)(C)c2sc3ccccc3[n+]2[O-])C1` gave an MTD [1] of 80 g/acre, an MED [2] of 160 g/acre and an MTD [3] of 80 g/acre. The MED [4] was 160 g/acre, the MED [5] was <5 g/acre and the MED [6] was <10 g/acre.
